Here are results for 4 compounds from US20100168233A1, “TERBINAFINE FORMULATION” (POWER PAPER LTD, priority 2007, published 2010).

Structures can show the parent of a compound that is named as a salt. Where two headings read alike, the source gives them in different places.

Data set [1] is described as follows: In vitro testing of iontophoretic delivery of terbinafine forms and hydrogel formulations to the nail bed. An excerpt: The acetic acid terbinafine salt may be used in the preparation of a medication for the treatment of any suitable disorder, such as the treatment of a fungal infection. In one aspect, the acetic acid terbinafine salt may be for treatment of onychomycosis.
The terbinafine acetate and/or mixture of terbinafine and acetic acid may be added to a hydrogel.

The subject of another data set is dermatophytes. As to conditions: cited from earlier work.
The conditions of data set [2]: cited from earlier work.
For data set [3] the following is noted: cited from earlier work. The source holds these as a separate data set.

With `CN(C/C=C/C#CC(C)(C)C)Cc1cccc2ccccc12` [terbinafine HCl, terbinafine hydrochloride], in data set [1], the “delivery of terbinafine to the nail bed” value is “about 45 μg/cm^2”. For the same compound, the “minimum inhibitory concentration (MIC) for dermatophytes” value with dermatophytes was “about 0.0015 μg/ml”.

As to `CN(C/C=C/C#CC(C)(C)C)Cc1cccc2ccccc12` [terbinafine base, N,6,6-trimethyl-N-(naphthalen-1-ylmethyl) hept-2-en-4-yn-1-amine], the “delivery of terbinafine to the nail bed” value in data set [1] is given as “about 10 μg/cm^2”. Moreover, the water solubility result in data set [2] (listed as Terbinafine base) is “significantly less water soluble”.

With `CN(C/C=C/C#CC(C)(C)C)Cc1cccc2ccccc12` [terbinafine, N,6,6-trimethyl-N-(naphthalen-1-ylmethyl) hept-2-en-4-yn-1-amine], in data set [2], the “solubility in methanol and ethanol” value is reported as “very soluble”; the water solubility entry is “low”. Also, in data set [3], the pKa of terbinafine result is given as “about 7.1”.

With terbinafine acetate, the “delivery of terbinafine to the nail bed” value in data set [1] (in vitro, iontophoretic delivery, similar conditions) is “about 150 μg/cm^2”.
